{"source": "patent US20260283924A1", "about": "“TOPICAL COMPOSITIONS FOR PROMOTING HAIR GROWTH” (ESTETRA SRL, priority 2023, published 2026)", "tested_on": "occipital hair follicles (healthy donor)", "assay": "Healthy donor hair follicle organ culture (ex vivo model), Example 8", "format": "cell-based, human", "details": "300 nM", "protocol": "In brief, 24 full-length occipital hair follicles (HF) were obtained from one healthy donor. […] Test substance (either vehicle (0.03% EtOH), E2 at concentration of 300 nM or E4 at concentrations of 3 μM or 300 nM) was added to the medium at the end of the 24 h. Total culturing time was 5 days depending on the stage of the HFs in the vehicle group. The experimental design is depicted in FIG. 23."}
{"smiles": "C[C@]12CC[C@@H]3c4ccc(O)cc4CC[C@H]3[C@@H]1CC[C@@H]2O", "note": "[Formulation E2, 17beta-estradiol]", "values": [{"measurement": "K15 expression in the suprabulbar outer root sheath", "value": "tendentially increased"}, {"measurement": "area of the dermal papilla", "value": "no effect"}, {"measurement": "density of cells in the dermal cup of anagen HFs", "value": "no effect"}, {"measurement": "density of cells in the dermal papilla", "value": "no effect"}, {"measurement": "density of cells in the dermal papilla stalk", "value": "no effect"}, {"measurement": "hair matrix keratinocyte proliferation", "value": "tendentially increased"}, {"measurement": "hair shaft production (reduction vs vehicle)", "value": "significantly reduced"}, {"measurement": "microscopic hair cycle", "value": "did not affect the hair cycle"}, {"measurement": "number of CD34+ cells in the suprabulbar outer root sheath", "value": "no effect"}, {"measurement": "number of cells (K15) in the suprabulbar outer root sheath", "value": "tendentially increased"}, {"measurement": "total number of cells in the dermal cup of anagen HFs", "value": "no effect"}, {"measurement": "total number of cells in the dermal papilla", "value": "no effect"}, {"measurement": "total number of cells in the dermal papilla stalk", "value": "no effect"}, {"measurement": "K15 expression in the suprabulbar outer root sheath", "setting": "listed as Estradiol", "value": "tendentially increase K15 expression"}, {"measurement": "area of the dermal papilla", "setting": "listed as Estradiol", "value": "does not display a significant effect"}, {"measurement": "density of cells in the dermal cup of anagen HFs", "setting": "listed as Estradiol", "value": "does not display a significant effect"}, {"measurement": "density of cells in the dermal papilla", "setting": "listed as Estradiol", "value": "does not display a significant effect"}, {"measurement": "density of cells in the dermal papilla stalk", "setting": "listed as Estradiol", "value": "does not display a significant effect"}, {"measurement": "hair matrix keratinocyte proliferation", "setting": "listed as Estradiol", "value": "increased"}, {"measurement": "hair shaft production (reduction vs vehicle)", "setting": "listed as Estradiol", "value": "Reduction of hair shaft production"}, {"measurement": "microscopic hair cycle", "setting": "listed as Estradiol", "value": "does not affect hair cycle"}, {"measurement": "number of CD34+ cells in the suprabulbar outer root sheath", "setting": "listed as Estradiol", "value": "does not display any effect"}, {"measurement": "number of cells (K15) in the suprabulbar outer root sheath", "setting": "listed as Estradiol", "value": "tendentially increase"}, {"measurement": "total number of cells in the dermal cup of anagen HFs", "setting": "listed as Estradiol", "value": "does not display a significant effect"}, {"measurement": "total number of cells in the dermal papilla", "setting": "listed as Estradiol", "value": "does not display a significant effect"}, {"measurement": "total number of cells in the dermal papilla stalk", "setting": "listed as Estradiol", "value": "does not display a significant effect"}]}
